Laboratory results published in patent US12091411B2, “IRAK degraders and uses thereof” (Kymera Therapeutics, Inc., priority 2022, dated 2024).
Where two headings read alike, the source gives them in different places.

Molecular target: T1, IRAK4 (Homo sapiens, UniProt Q9NWZ3)
T1 construct: Degradation of IRAK4 in OCI-LY10 was quantitatively measured using Meso Scale Discovery technology; endogenous in cells; host or cells: OCI-LY10
T1 sequence (Q9NWZ3 1-460): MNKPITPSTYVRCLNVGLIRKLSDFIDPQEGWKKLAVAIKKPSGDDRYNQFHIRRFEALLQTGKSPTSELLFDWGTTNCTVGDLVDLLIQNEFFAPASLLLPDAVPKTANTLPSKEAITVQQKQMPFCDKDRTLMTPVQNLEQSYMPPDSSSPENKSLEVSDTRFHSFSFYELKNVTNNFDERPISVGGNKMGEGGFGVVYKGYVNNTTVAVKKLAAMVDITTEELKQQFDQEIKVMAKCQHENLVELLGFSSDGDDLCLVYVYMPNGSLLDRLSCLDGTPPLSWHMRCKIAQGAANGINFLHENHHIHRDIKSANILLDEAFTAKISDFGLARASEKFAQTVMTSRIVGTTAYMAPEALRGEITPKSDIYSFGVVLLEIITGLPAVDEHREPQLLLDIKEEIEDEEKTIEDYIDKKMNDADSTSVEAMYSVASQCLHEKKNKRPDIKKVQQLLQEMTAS
Assay: IRAK4 MSD Degradation in OCI-LY10
Format: cell-based
Conditions: OCI-LY10 cells, MSD
Summary of the method: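 DC50, from a three-parameter logistic fit and reported as letter bins A (<0.01 μM), B, C, D (>0.2 μM or not tested), reflects IRAK4 loss measured by MSD electrochemiluminescence in OCI-LY10 lysates. Treatment: 8 doses, 1:3 steps, top 1 to 10 μM, 4 to 24 h, 37 °C.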

[1] = 4 hrs incubation, read-out: IRAK4 degradation in OCI-LY10 at 4 hrs: DC50
[2] = 24 hrs incubation, read-out: IRAK4 degradation in OCI-LY10 at 24 hrs: DC50

DC50 [1] [nM]	DC50 [2] [nM]	SMILES
> 200	> 200	Cn1c(=O)n(C2CCC(=O)NC2=O)c2cccc(C3CCN(C4CCN(C5CCC(n6cc(NC(=O)c7cnn8ccc(N9C[C@H]%10C[C@@H]9CO%10)nc78)c(C(F)F)n6)CC5)CC4)CC3)c21 (stereo partly shown) [I-423]
> 200	> 200	Cn1c(=O)n(C2CCC(=O)NC2=O)c2cccc(N3CCN([C@H]4CC[C@@H](n5cc(NC(=O)c6cnn7ccc(N8C[C@H]9C[C@@H]8CO9)nc67)c(C(F)F)n5)CC4)CC3)c21 (stereo partly shown) [I-424]
10 to 100	> 200	Cn1c(=O)n(C2CCC(=O)NC2=O)c2cccc(C#CCN3CCN(C[C@H]4CC[C@H](n5cc(NC(=O)c6cnn7ccc(C8CCOC8)nc67)c(C(F)F)n5)CC4)CC3)c21 (stereo partly shown) [I-426]
> 200	< 10	C[C@H]1CN(c2ccn3ncc(C(=O)Nc4cn([C@H]5CC[C@H](CN(C)C6CCN(c7cccc8c7n(C)c(=O)n8C7CCC(=O)NC7=O)CC6)CC5)nc4C(F)F)c3n2)CCO1 (stereo partly shown) [I-427]
> 200	< 10	C[C@@H]1CN(c2ccn3ncc(C(=O)Nc4cn([C@H]5CC[C@H](CN(C)C6CCN(c7cccc8c7n(C)c(=O)n8C7CCC(=O)NC7=O)CC6)CC5)nc4C(F)F)c3n2)CCO1 (stereo partly shown) [I-428]
> 200	> 200	C[C@@H]1CN(c2ccn3ncc(C(=O)Nc4cn([C@H]5CC[C@H](CN6CCN(CC#Cc7cccc8c7n(C)c(=O)n8C7CCC(=O)NC7=O)CC6)CC5)nc4C(F)F)c3n2)C[C@H](C)O1 (stereo partly shown) [I-429]
> 200	< 10	C[C@H]1CN(c2ccn3ncc(C(=O)Nc4cn([C@H]5CC[C@H](CN6CCN(CC#Cc7cccc8c7n(C)c(=O)n8C7CCC(=O)NC7=O)CC6)CC5)nc4C(F)F)c3n2)C[C@H](C)O1 (stereo partly shown) [I-430]
> 200	< 10	C[C@@H]1CN(c2ccn3ncc(C(=O)Nc4cn([C@H]5CC[C@H](CN6CCN(CC#Cc7cccc8c7n(C)c(=O)n8C7CCC(=O)NC7=O)CC6)CC5)nc4C(F)F)c3n2)C[C@@H](C)O1 (stereo partly shown) [I-431]
> 200	< 10	[2H]C([2H])([2H])Oc1ccc2c(c1C1CCN(C[C@H]3CC[C@H](n4cc5cc(NC(=O)c6cccc(C(F)(F)F)n6)ncc5n4)CC3)CC1)n(C([2H])([2H])[2H])c(=O)n2C1CCC(=O)NC1=O (stereo partly shown) [I-432]
> 200	< 10	Cn1c(=O)n(C2CCC(=O)NC2=O)c2cccc(C#CCOC3CCN(C[C@H]4CC[C@H](n5cc(NC(=O)c6cnn7ccc(N8CCC(F)(F)CC8)nc67)c(C(F)F)n5)CC4)CC3)c21 (stereo partly shown) [I-433]
> 200	< 10	Cn1c(=O)n(C2CCC(=O)NC2=O)c2cccc(C#CCN3CCN(C[C@H]4CC[C@H](n5cc(NC(=O)c6cnn7ccc(N8CCC(F)(F)CC8)nc67)c(C(F)F)n5)CC4)CC3)c21 (stereo partly shown) [I-434]
> 200	> 200	O=C1CCN(c2cccc(C#CCN3CCN(C[C@H]4CC[C@@H](n5cc(NC(=O)c6cnn7ccc(N8CC9CCC(C8)O9)nc67)c(C(F)F)n5)CC4)CC3)c2)C(=O)N1 [I-435]
> 200	> 200	O=C1CCN(c2cccc(C#CCN3CCN(C[C@H]4CC[C@@H](n5cc(NC(=O)c6cnn7ccc(N8CC9CC(C8)O9)nc67)c(C(F)F)n5)CC4)CC3)c2)C(=O)N1 [I-436]
10 to 100	> 200	O=C1CCC(c2ccc(C#CCN3CCN(C[C@H]4CC[C@H](n5cc(NC(=O)c6cnn7ccc(N8C[C@H]9C[C@@H]8CO9)nc67)c(C(F)F)n5)CC4)CC3)cc2)C(=O)N1 (stereo partly shown) [I-437]
< 10	> 200	COc1cc2nn([C@H]3CC[C@H](CN4CCC(c5cccc6c5n(C)c(=O)n6C5CCC(=O)NC5=O)CC4)CC3)cc2cc1NC(=O)c1cncc(F)c1 (stereo partly shown) [I-439]
< 10	< 10	C[C@@H]1CN(c2ccn3ncc(C(=O)Nc4cn([C@H]5CC[C@H](CN(C)C6CCN(c7cccc8c7n(C)c(=O)n8C7CCC(=O)NC7=O)CC6)CC5)nc4C(F)F)c3n2)C[C@@H](C)O1 (stereo partly shown) [I-440]
< 10	< 10	C[C@H]1CN(c2ccn3ncc(C(=O)Nc4cn([C@H]5CC[C@H](CN(C)C6CCN(c7cccc8c7n(C)c(=O)n8C7CCC(=O)NC7=O)CC6)CC5)nc4C(F)F)c3n2)C[C@H](C)O1 (stereo partly shown) [I-441]
10 to 100	< 10	C[C@@H]1CN(c2ccn3ncc(C(=O)Nc4cn([C@H]5CC[C@H](CN(C)C6CCN(c7cccc8c7n(C)c(=O)n8C7CCC(=O)NC7=O)CC6)CC5)nc4C(F)F)c3n2)C[C@H](C)O1 (stereo partly shown) [I-442]
> 200	> 200	Cn1c(=O)n(C2CCC(=O)NC2=O)c2cccc(C3CCN(C[C@H]4CC[C@H](n5cc6cc(NC(=O)c7cccc(C(F)(F)F)n7)c(C(F)F)cc6n5)CC4)CC3(F)F)c21 (stereo partly shown) [I-443]

DC50 [1] [nM]	DC50 [2] [nM]	SMILES
> 200	> 200	Cn1c(=O)n(C2CCC(=O)NC2=O)c2cccc(C3CCN(C[C@H]4CC[C@H](n5cc6cc(NC(=O)c7cccc(C(F)(F)F)n7)c(C#N)cc6n5)CC4)CC3(F)F)c21 (stereo partly shown) [I-444]
> 200	> 200	Cn1c(=O)n(C2CCC(=O)NC2=O)c2cccc(C3CCN(C[C@H]4CC[C@H](n5cc6cc(NC(=O)c7cccc(C(F)(F)F)n7)ccc6n5)CC4)CC3(F)F)c21 (stereo partly shown) [I-445]
> 200	> 200	COc1ccc2c(c1C1CCN(C[C@H]3CC[C@H](n4cc5cc(NC(=O)c6cccc(C(F)(F)F)n6)ccc5n4)CC3)CC1(F)F)n(C)c(=O)n2C1CCC(=O)NC1=O (stereo partly shown) [I-446]
> 200	< 10	Cn1c(=O)n(C2CCC(=O)NC2=O)c2cccc(C3CCN(C[C@H]4CC[C@H](n5cc6cc(NC(=O)c7cccc(C(F)(F)F)n7)ncc6n5)CC4)CC3(F)F)c21 (stereo partly shown) [I-447]
> 200	> 200	COc1ccc2c(c1C1CCN(C[C@H]3CC[C@H](n4cc5cc(NC(=O)c6cccc(C(F)(F)F)n6)ncc5n4)CC3)CC1(F)F)n(C)c(=O)n2C1CCC(=O)NC1=O (stereo partly shown) [I-448]
> 200	> 200	Cn1c(=O)n(C2CCC(=O)NC2=O)c2cccc(C3CCN(C[C@H]4CC[C@H](n5cc6cc(NC(=O)c7cccc(C(F)(F)F)n7)c(F)cc6n5)CC4)CC3(F)F)c21 (stereo partly shown) [I-449]
> 200	> 200	Cn1c(=O)n(C2CCC(=O)NC2=O)c2cccc(C3CCN(C[C@H]4CC[C@H](n5cc6cc(NC(=O)c7cccc(C(F)(F)F)n7)c(Cl)cc6n5)CC4)CC3(F)F)c21 (stereo partly shown) [I-450]
> 200	> 200	COc1cc2nn([C@H]3CC[C@H](CN4CCC(c5cccc6c5n(C)c(=O)n6C5CCC(=O)NC5=O)C(F)(F)C4)CC3)cc2cc1NC(=O)c1cccc(C(F)(F)F)n1 (stereo partly shown) [I-451]
> 200	> 200	Cc1cc2nn([C@H]3CC[C@H](CN4CCC(c5cccc6c5n(C)c(=O)n6C5CCC(=O)NC5=O)C(F)(F)C4)CC3)cc2cc1NC(=O)c1cccc(C(F)(F)F)n1 (stereo partly shown) [I-452]
> 200	> 200	COc1ccc2c(c1N1CCC(N(C)C[C@H]3CC[C@H](n4cc(NC(=O)c5cnn6cccnc56)c(C(F)F)n4)CC3)C(F)(F)C1)n(C)c(=O)n2C1CCC(=O)NC1=O (stereo partly shown) [I-453]
> 200	> 200	Cn1c(=O)n(C2CCC(=O)NC2=O)c2cccc(C3=CCN(C[C@H]4CC[C@H](n5cc6cc(NC(=O)c7cccc(C(F)(F)F)n7)ccc6n5)CC4)CC3(F)F)c21 (stereo partly shown) [I-454]
> 200	> 200	Cn1c(=O)n(C2CCC(=O)NC2=O)c2cccc(C3=CCN(C[C@H]4CC[C@H](n5cc6cc(NC(=O)c7cccc(C(F)(F)F)n7)c(C#N)cc6n5)CC4)CC3(F)F)c21 (stereo partly shown) [I-455]
> 200	> 200	Cn1c(=O)n(C2CCC(=O)NC2=O)c2cccc(C3=CCN(C[C@H]4CC[C@H](n5cc6cc(NC(=O)c7cccc(C(F)(F)F)n7)c(C(F)F)cc6n5)CC4)CC3(F)F)c21 (stereo partly shown) [I-456]
> 200	> 200	Cn1c(=O)n(C2CCC(=O)NC2=O)c2cccc(C3=CCN(C[C@H]4CC[C@H](n5cc6cc(NC(=O)c7cccc(C(F)(F)F)n7)ccc6n5)CC4)CC3F)c21 (stereo partly shown) [I-457]
> 200	> 200	Cn1c(=O)n(C2CCC(=O)NC2=O)c2cccc(C3=CCN(C[C@H]4CC[C@H](n5cc6cc(NC(=O)c7cccc(C(F)(F)F)n7)c(C#N)cc6n5)CC4)CC3F)c21 (stereo partly shown) [I-458]
> 200	> 200	Cn1c(=O)n(C2CCC(=O)NC2=O)c2cccc(C3=CCN(C[C@H]4CC[C@H](n5cc6cc(NC(=O)c7cccc(C(F)(F)F)n7)c(C(F)F)cc6n5)CC4)CC3F)c21 (stereo partly shown) [I-459]
> 200	> 200	Cn1c(=O)n(C2CCC(=O)NC2=O)c2cccc(C3CCN(C[C@H]4CC[C@H](n5cc6cc(NC(=O)c7cccc(C(F)(F)F)n7)ccc6n5)CC4)CC3O)c21 (stereo partly shown) [I-460]
> 200	> 200	Cn1c(=O)n(C2CCC(=O)NC2=O)c2cccc(C3CCN(C[C@]4(O)CC[C@@H](n5cc6cc(NC(=O)c7cccc(C(F)(F)F)n7)ccc6n5)CC4)CC3)c21 (stereo partly shown) [I-461]
> 200	> 200	COc1cc2nn([C@H]3CC[C@H](CN4CC=C(c5ccc6c(c5)n(C)c(=O)n6C5CCC(=O)NC5=O)C(F)(F)C4)CC3)cc2cc1NC(=O)c1cccc(C(F)(F)F)n1 (stereo partly shown) [I-462]
